Data on eight molecules can be found in patent US10479777B2, “Herbicidal azines” (BASF SE, priority 2013, dated 2019).

Common to all, as to assay type: in vivo
The test system of experiment [1] is Abutilon theophrasti. Description: greenhouse test, post-emergence treatment. Particulars: scale from 0 to 100. An excerpt:
(§1) The culture containers used were plastic flowerpots containing loamy sand with approximately 3.0% of humus as the substrate. The seeds of the test plants were sown separately for each species.
(§2) For the pre-emergence treatment, the active ingredients, which had been suspended or emulsified in water, were applied directly after sowing by means of finely distributing nozzles. The containers were irrigated gently to promote germination and growth and subsequently covered with transparent plastic hoods until the plants had rooted. This cover caused uniform germination of the test plants, unless this had been impaired by the active ingredients. For the post-emergence treatment, the test plants were first grown to a height of 3 to 15 cm, depending on the plant habit, and only then treated with the active ingredients which had been suspended or emulsified in water. For this purpose, the test plants were either sown directly and grown in the same containers, or they were first grown separately as seedlings and transplanted into the test containers a few days prior to treatment.
(§3) Depending on the species, the plants were kept at 10-25° C. or 20-35° C., respectively. The test period extended over 2 to 4 weeks. During this time, the plants were tended, and their response to the individual treatments was evaluated.
(§4) Evaluation was carried out using a scale from 0 to 100. 100 means no emergence of the plants, or complete destruction of at least the aerial moieties, and 0 means no damage, or normal course of growth. A moderate herbicidal activity is given at values of at least 60, a good herbicidal activity is given at values of at least 70, and a very good herbicidal activity is given at values of at least 85.
(§5) The plants used in the greenhouse experiments were of the following species: […]

Experiment [2] concerns Amaranthus retroflexus. Description: greenhouse test, post-emergence treatment. To be noted: scale from 0 to 100.
Description: as §1, §2, §3, §4, §5

Experiment [3] concerns Setaria faberi. Briefly: greenhouse test, post-emergence treatment. Particulars: 500 g/ha, scale from 0 to 100.
Description: as §1, §2, §3, §4, §5

Experiment [4] concerns Poa annua. Briefly: greenhouse test, pre-emergence treatment. Particulars: scale from 0 to 100.
Description: as §1, §2, §3, §4, §5

For experiment [5], the system named is Stellaria media. Description: greenhouse test, pre-emergence treatment. Particulars: scale from 0 to 100.
Description: as §1, §2, §3, §4, §5

Experiment [6] deals with Echinocloa crus-galli. Briefly: greenhouse test, pre-emergence treatment. To be noted: scale from 0 to 100.
Description: as §1, §2, §3, §4, §5

Experiment [7] concerns Polygonum convolvulus. Description: greenhouse test, pre-emergence treatment. To be noted: 62.5 g/ha, scale from 0 to 100.
Description: as §1, §2, §3, §4, §5

For experiment [8], the system named is Setaria viridis. Description: greenhouse test, pre-emergence treatment. Particulars: scale from 0 to 100.
Description: as §1, §2, §3, §4, §5

The test system of experiment [9] is Setaria viridis. Description: greenhouse test, post-emergence treatment. Particulars: scale from 0 to 100.
Description: as §1, §2, §3, §4, §5

Experiment [10] deals with Amaranthus retroflexus. Description: greenhouse test, pre-emergence treatment. Particulars: scale from 0 to 100.
Description: as §1, §2, §3, §4, §5

The subject of experiment [11] is Apera spica-venti. Description: greenhouse test, pre-emergence treatment. To be noted: 62 g/ha, scale from 0 to 100.
Description: as §1, §2, §3, §4, §5

For `CC(c1nc(N)nc(Nc2c(F)c(F)nc(F)c2F)n1)C1CC1` (stereo not shown) [Example 60], the herbicidal activity result in experiment [1] (500 g/ha), in [2] (500 g/ha) and in [3] was “very good (a very good herbicidal activity is given at values of at least 85)” in each case.

On to `Nc1nc(Nc2c(F)c(F)nc(F)c2F)nc(C2CCCCC2)n1` [Example 59], for which the herbicidal activity result in experiment [4] (250 g/ha) and in experiment [5] (250 g/ha) was “very good (a very good herbicidal activity is given at values of at least 85)” each time.

In the case of `CC(C)(F)c1nc(N)nc(Nc2c(F)c(F)nc(F)c2F)n1` [Example 1, 6-(1-Fluoro-1-methyl-ethyl)-N4-(2,3,5,6-tetrafluoro-4-pyridyl)-1,3,5-triazine-2,4-diamine], the herbicidal activity result in [6] (62.5 g/ha), in experiment [7] and in experiment [8] (62.5 g/ha) was “very good (a very good herbicidal activity is given at values of at least 85)” throughout.

Turning to `CC(C)Oc1cccnc1Nc1nc(N)nc(C(F)(F)F)n1` [Example 36], the herbicidal activity entry in experiment [9] (1104 g/ha) was “very good (a very good herbicidal activity is given at values of at least 85)”.

For `CC(C)(F)c1nc(N)nc(Nc2c(F)cncc2F)n1` [Example 54], the herbicidal activity result in [10] (62 g/ha) and in experiment [11] was “very good (a very good herbicidal activity is given at values of at least 85)” each time.

Regarding `CC(C)(Cl)c1nc(N)nc(Nc2c(F)c(F)nc(F)c2F)n1` [Example 56], the herbicidal activity entry in [4] (125 g/ha) and in [5] (125 g/ha) was “very good (a very good herbicidal activity is given at values of at least 85)” throughout.

`CC(C)(F)c1nc(N)nc(Nc2nc(F)c(F)c(Cl)c2F)n1` [Example 5]: the herbicidal activity entry in experiment [10] (125 g/ha), in experiment [6] (125 g/ha) and in experiment [8] (125 g/ha) was “very good (a very good herbicidal activity is given at values of at least 85)” in each case.

For `Cc1cccnc1Nc1nc(N)nc(C(F)(F)F)n1` [Example 34], the herbicidal activity result in experiment [1] (2000 g/ha), in experiment [2] (2000 g/ha) and in experiment [9] (2000 g/ha) was “very good (a very good herbicidal activity is given at values of at least 85)” in each case.
